Laboratory results from PMC8524146, “In vitro and in silico characterization of alkaline serine protease from Bacillus subtilis D9 recovered from Saudi Arabia” (Heliyon, 2021).

Target: T1, AKD9 alkaline serine protease (Bacillus subtilis, UniProt A0A5Q0V2V1)
T1 construct: native enzyme purified from culture supernatant of isolate D9; single band just below 48 kDa; cloned gene 442 aa, 47,789 Da
Assay: casein hydrolysis, A280 of TCA-soluble products
Format: biochemical
Conditions: 100 µM; 0.1 mM TLCK; casein substrate
Source text: casein hydrolysis, A280 of TCA-soluble products on AKD9 alkaline serine protease

T1 sequence (A0A5Q0V2V1 1-442): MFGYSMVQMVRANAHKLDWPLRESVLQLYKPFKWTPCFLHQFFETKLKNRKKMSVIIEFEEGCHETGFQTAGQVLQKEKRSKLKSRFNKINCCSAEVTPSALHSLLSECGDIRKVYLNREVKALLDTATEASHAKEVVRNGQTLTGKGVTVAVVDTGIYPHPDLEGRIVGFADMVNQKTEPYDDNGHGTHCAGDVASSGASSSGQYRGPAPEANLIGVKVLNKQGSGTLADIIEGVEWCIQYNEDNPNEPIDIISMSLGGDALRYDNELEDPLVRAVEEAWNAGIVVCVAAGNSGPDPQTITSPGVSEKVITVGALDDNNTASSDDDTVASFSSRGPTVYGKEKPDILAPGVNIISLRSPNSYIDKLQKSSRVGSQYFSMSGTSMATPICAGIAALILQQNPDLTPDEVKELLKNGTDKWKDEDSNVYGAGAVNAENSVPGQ

Cc1ccc(S(=O)(=O)N[C@@H](CCCCN)C(=O)CCl)cc1 [TLCK]
Residual activity, U/ml: 31.5 ± 0.4 U/ml
